Assays:
[1] = Liver distribution in Wistar rats; conditions: liver; for increase in Cmax on co-administration vs single treatment / exposure (AUC) of metabolite as share of the exposure of BBR / AUC ± SE / Cmax / Tmax / increase in AUC on co-administration vs single treatment: Wistar rats; for AUC ± SE / Cmax / half-life / Tmax: n = 5; for Cmax / half-life / Tmax: male, Wistar, rat, po; for Cmax: Cmax ± SE; for half-life: T1/2, Wistar rats
primary rat hepatocytes = test: Hepatic metabolism in primary hepatocytes; conditions: 3 h
[2] = Body weight, food intake, organ coefficients and side effects in GK rats; assay type: in vivo, rat; conditions: day 42
Protocol: (§1) Four-week-old male GK rats were fed a high-fat diet, and age-matched non-diabetic Wistar rats were fed standard chow as the control group. Under these dietary conditions, blood glucose was estimated each week for 7 weeks in 12-h fasted rats using a portable glucometer (One Touch Sure Step Meter, Johnson & Johnson, United States) by drawing the blood from the tail vein. GK rats with fasting blood glucose levels (FBG) above 16.7 mM were considered as diabetic rats, and only uniformly diabetic rats were used in this study. […] All the drugs were suspended in 0.5% carboxymethylcellulose sodium (CMC-Na) solution for oral gavage (10 ml/kg) once per day (at 9:00) for 6 weeks. Simultaneously, the Wistar and vehicle groups received vehicle over the treatment period. Food consumption and body weight were measured every week throughout the experimental periods. Non-fasting blood glucose (NFBG) levels were determined by collecting blood samples from the tail vein (at 9:00), and FBG levels were determined after a 6-h fast (at 15:00) on days 0, 7, 14, 21, and 42. On day 28, an oral glucose tolerance test (OGTT) was performed after an overnight fast. […] On day 42, the rats were anesthetized with urethane (1.4 g/kg, dissolved in saline) after an overnight fast and were sacrificed to collect the liver, kidney, heart, and spleen. The organs were weighed after washing with saline and drying to calculate the organ coefficient, namely, the ratio between the weight of organs and the body in each rat.

GK rats [3] = test: NFBG and FBG levels in GK rats, 6-week oral treatment; assay type: in vivo, rat; conditions: during 6-week treatment, TB-2 33.3, BBR 66.7, TB-2+BBR 100, metformin 200 mg/kg/day
Protocol: as §1

GK rats [4] = test: Oral glucose tolerance test (OGTT) in GK rats on day 28; assay type: in vivo, rat; conditions: after 4 weeks of treatment, glucose 2 g/kg oral
Protocol: as §1

[5] = single oral BBR 66.7 mg/kg alone
[6] = single oral BBR+TB-2 (66.7+33.3 mg/kg)
[7] = single treatment (On TB-2 treatments)
[8] = 33.3 mg/kg, single oral BBR+TB-2 (66.7+33.3 mg/kg)
[9] = 66.7 mg/kg, single oral BBR 66.7 mg/kg alone

SMILES | increase in Cmax on co-administration vs single treatment [1] [%] | exposure (AUC) of metabolite as share of the exposure of BBR ([1]; TB-2+BBR treatments) [%] | AUC ± SE [1, 5] [h ∗ ng/g] | AUC ± SE [1, 6] | exposure (AUC) of metabolite as share of the exposure of BBR [1, 7] [%] | Cmax [1, 8] [ng/g] | half-life [1, 8] [h] | Tmax [1, 8] [h] | Cmax [1, 9] [ng/g] | half-life [1, 9] [h] | Tmax [1, 9] [h] | effect on BBR metabolism and the generation of M2–M5 (primary rat hepatocytes; BBR 1 μM, ABT 1 mM, TB-2 0.1 to 30 μM) | increase in AUC on co-administration vs single treatment [1] [%] | metabolism after incubation (in words) (primary rat hepatocytes; midazolam 20 μM, TB-2 1 μM) | effect on organ coefficients (liver and kidney) vs vehicle [2] | FBG levels compared with the vehicle group (in words) (GK rats [3]) | NFBG levels compared with the vehicle group (in words) (GK rats [3]) | decrease in the AUC of blood glucose in OGTT vs vehicle (GK rats [4]) [%] | decrease of blood glucose levels in OGTT at 30 min vs vehicle (GK rats [4]) [%]
COc1c(O)ccc2cc3[n+](cc12)CCc1cc2c(cc1-3)OCO2 [M2, Thalifendine] | 117 | 144 | 5935.8 ± 164.9 | 6651.2 ± 469.0 h ∗ ng/g | 182 | 1660 ± 255 | 5 | 2 | 766 ± 54.3 | 6.8 | 4 |  |  |  |  |  |  |  | 
Nn1nnc2ccccc21 [ABT, 1-aminobenzotriazole] |  |  |  |  |  |  |  |  |  |  |  | completely abrogated |  |  |  |  |  |  | 
COc1cc2c(cc1O)CC[n+]1cc3c(OC)c(OC)ccc3cc1-2 [M4, jatrorrhizine] | 156 | 15 | 527.5 ± 25.0 | 690.8 ± 59.6^∗ h ∗ ng/g | 16 | 200 ± 33.7 | 7 | 2 | 78.2 ± 10.7 | 9.7 | 2 |  | 31 |  |  |  |  |  | 
COc1ccc2cc3[n+](cc2c1OC)CCc1cc(O)c(O)cc1-3 [M3, demethyleneberberine] | 174 | 12 | 234.5 ± 29.3 | 572.9 ± 34.7^∗∗∗ h ∗ ng/g | 7 | 106 ± 18.2 | 6.2 | 2 | 38.8 ± 5.6 | 18.5 | 2 |  | 144 |  |  |  |  |  | 
COc1cc2c(cc1O)-c1cc3ccc(OC)c(OC)c3c[n+]1CC2 [M5, columbamine] |  | 11 | 362.8 ± 18.7 | 489.2 ± 59.2^∗ h ∗ ng/g | 11 | 184 ± 38.4 | 6 | 2 | 89.4 ± 15.6 | 9.5 | 2 |  | 35 |  |  |  |  |  | 
Cc1ncc2n1-c1ccc(Cl)cc1C(c1ccccc1F)=NC2 [midazolam] |  |  |  |  |  |  |  |  |  |  |  |  |  | significantly metabolized |  |  |  |  | 
CN(C)C(=N)N=C(N)N [metformin] |  |  |  |  |  |  |  |  |  |  |  |  |  |  | no effect | significantly decreased | did not significantly decrease | 11.3 | 30

From article PMC6353801, “Enhanced Anti-diabetic Effect of Berberine Combined With Timosaponin B2 in Goto-Kakizaki Rats, Associated With Increased Variety and Exposure of Effective Substances Through Intestinal Absorption” (Frontiers in Pharmacology, 2019)
